Data set [1] addresses NMDA receptor (NR1 + NR2 subunits) (Rattus norvegicus, UniProt P35439+Q00960). The experiment in a line: Two electrode voltage clamp recording from Xenopus laevis oocytes (pH dependence of NMDA antagonism). In kind it is cell-based. Particulars: Table 27; pH not stated; read-out: Rat IC50. The method, boiled down: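 Oocytes expressing rat NR1/NR2 were held at −40 mV at 23 °C, 2–7 days after injection, in Ba²⁺ saline with pH adjusted and 10 µM EDTA. Compounds at 4–8 concentrations were co-applied with 50 µM glutamate and 30 µM glycine. Percent of the initial response was leak-corrected, pooled over 3–6 frogs and fitted with a Hill equation (minimum ≥0) to give IC50.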
On the technique in general: Two-electrode voltage clamp holds a large cell at a set potential and records current.

Data set [2] in a line: Plasma and brain exposure assessment. The format is in vivo, Mice. Conditions: mouse, ip; for concentration at 30 min: calculated from the brain:plasma ratio determined by LC-MS/MS. On the procedure: Mice were administered a dose of test compound (10 mg/kg by i.p.) and blood and brain tissue samples collected at the indicated times post drug administration (n=3-5). Blood samples were collected in K-EDTA tubes and centrifuged for ten minutes immediately after collection, and the plasma was stored at −80° C. until analysis. Brains were immediately removed from the skull and the meninges and cerebellum removed, rinsed with ice-cold PBS, weighed and then homogenized at 4° C. in 2-3 volumes of 50 mM potassium phosphate buffer (pH 7.4) and stored at −80° C. until analysis. Plasma and brain homogenates were extracted by the addition of 5 volumes of cold acetonitrile, mixed well by vortexing and centrifuged at 4000 rpm for 15 minutes. The supernatant fractions were analyzed by LC-MS/MS operating in multiple reaction monitoring mode (MRM) and analyzed for the parent compound to determine the plasma or brain concentration. Internal standards were added to calibrate each sample. An eight point standard curve was prepared similarly in naïve plasma and brain for each compound of interest. Based on occupancy studies of other NR2B antagonists in rodents (CP-101,606, Ro25-6981, and Merck20j), plus plasma levels achieved in Preskorn et al., brain exposures for the test compounds were consistent with “anticipated levels” required for efficacy.

In data set [3] the test system is CD1 mice. The experiment in a line: Forced swim model (depression result). The format is in vivo. Particulars: i.p. On the procedure:
CD1 mice were adminstered a compounds shown in Table 11, desipramine, Ro 25-6981 or a control vehicle and subjected to a forced swim test. All compounds were administered as intraperitoneal injections. Animals were placed into a beaker (15 cm diameter) of water held at 25° C. with a depth of 15 cm 30 min after compound administration. Behavior was videotaped for 6 minutes from the side of the beaker and scored subsequently for struggling behavior. Results were analyzed by one-way ANOVA and post-hoc Bonferroni tests. Total immobility time refers to the time that the animal spends floating or engaged in minimal activity to keep afloat for at least 3 seconds. Subtle movements of feet, tail or head required to maintain the eyes, ears, and nose above the surface of the water were excluded as immobility. The video-tapes were scored by investigators unfamiliar with the treatments of the mice.
For the data in FIG. 1, test compounds were tested at a dose of 10 mg/ kg. Desipramine was tested at a dose of 20 mg/kg. Ro 25-6981 was tested at a dose of 5 mg/kg. Number of CD1 mice tested per groups was 8-10. ANOVA: F(11,98)=3.638, p<0.01. *=p<0.05 compared to vehicle. +=p<0.05 compared to desipramine.
For the data in FIG. 2, compounds NP10075 and NP10076 were tested at doses of 5 mg/kg, 7.5 mg/kg and 10 mg/kg; desipramine was tested at a dose of 20 mg/kg; and Ro 25-6981 was tested at a dose of 5 mg/kg. Number of CD1 mice tested per group was 8-10. *=p<0.05, **=p<0.01 ANOVA, post-hoc Bonferroni from control.

Data set [4] has as its system Salmonella typhimurium TA98, TA102. The experiment in a line: Ames test for genotoxicity. Conditions: 8 conc., 1.5-5000 μg/plate; +/− S9 both; strains TA98, TA102. As for the experimental part:
The Ames test determines the ability of a compound to reverse an introduced mutation in two strains of Salmonella typhimurium (selected from TA98, TA100, TA15345, TA1537, and TA102). (See for example Maron, D. M. and Ames, B. N., Mutat. Res., 1983, 113, 173-215.) Compounds were tested at eight dose levels 1.5, 5, 15, 50, 150, 500, 1500, and 5000 μg/plate in both the presence and absence of S-9 microsomal fraction in two bacterial strains (TA98, TA102). After incubation at 37° the number of revertant colonies was compared with the number of spontaneous revertants on negative (vehicle) plates. Positive control plates containing a known mutagen active in each of the strains in the presence of S-9 extract (2-aminoanthracene at 1-5 ug/plate) were also run.
A general note: In the Ames test, an excess of revertant colonies over the control signals mutagenicity.

The subject of data set [5] is mice. The experiment in a line: Open field activity test. The format is in vivo. Particulars: 10 mg/kg, intraperitoneal. On the procedure:
Spontaneous activity was evaluated in an automated Omnitech Digiscan apparatus (AccuScan Instruments, Columbus, Ohio). Animals were given vehicle, imipramine, or a dose of a test compound. All compounds were administered as intraperitoneal injections. Activity was summated at 5 minute intervals over the 90 min period of testing. At 60 minutes, the mice were injected with 10 mg/kg NP10075, 10 mg/kg NP10076 or a vehicle. Locomotion was measured in terms of the total distance traveled (horizontal activity). Results were analyzed by one-way ANOVA and post-hoc Bonferroni tests.

[6] abbreviates: plasma (free, unbound), mice 10 mg/kg i.p., 30 minute, based on % free fraction measured in protein binding study, read-out: Free Plasma.
[7] abbreviates: plasma (free, unbound), mice 10 mg/kg i.p., 30 minute, based on % free fraction, read-out: Free Plasma.
The mark [8] stands for this setting: plasma, mice dosed 10 mg/kg, i.p., 30 minute time point, LC-MS/MS, read-out: Plasma.

Here are results for three compounds from patent US20110160223A1, “NMDA Receptor Antagonists for the Treatment of Neuropsychiatric Disorders” (priority 2008, published 2011).

Read-outs that look alike come from different tables or passages of the source.

NMDA receptor (NR1 + NR2 subunits), sequence (Q00960 27-1482, other chains not shown): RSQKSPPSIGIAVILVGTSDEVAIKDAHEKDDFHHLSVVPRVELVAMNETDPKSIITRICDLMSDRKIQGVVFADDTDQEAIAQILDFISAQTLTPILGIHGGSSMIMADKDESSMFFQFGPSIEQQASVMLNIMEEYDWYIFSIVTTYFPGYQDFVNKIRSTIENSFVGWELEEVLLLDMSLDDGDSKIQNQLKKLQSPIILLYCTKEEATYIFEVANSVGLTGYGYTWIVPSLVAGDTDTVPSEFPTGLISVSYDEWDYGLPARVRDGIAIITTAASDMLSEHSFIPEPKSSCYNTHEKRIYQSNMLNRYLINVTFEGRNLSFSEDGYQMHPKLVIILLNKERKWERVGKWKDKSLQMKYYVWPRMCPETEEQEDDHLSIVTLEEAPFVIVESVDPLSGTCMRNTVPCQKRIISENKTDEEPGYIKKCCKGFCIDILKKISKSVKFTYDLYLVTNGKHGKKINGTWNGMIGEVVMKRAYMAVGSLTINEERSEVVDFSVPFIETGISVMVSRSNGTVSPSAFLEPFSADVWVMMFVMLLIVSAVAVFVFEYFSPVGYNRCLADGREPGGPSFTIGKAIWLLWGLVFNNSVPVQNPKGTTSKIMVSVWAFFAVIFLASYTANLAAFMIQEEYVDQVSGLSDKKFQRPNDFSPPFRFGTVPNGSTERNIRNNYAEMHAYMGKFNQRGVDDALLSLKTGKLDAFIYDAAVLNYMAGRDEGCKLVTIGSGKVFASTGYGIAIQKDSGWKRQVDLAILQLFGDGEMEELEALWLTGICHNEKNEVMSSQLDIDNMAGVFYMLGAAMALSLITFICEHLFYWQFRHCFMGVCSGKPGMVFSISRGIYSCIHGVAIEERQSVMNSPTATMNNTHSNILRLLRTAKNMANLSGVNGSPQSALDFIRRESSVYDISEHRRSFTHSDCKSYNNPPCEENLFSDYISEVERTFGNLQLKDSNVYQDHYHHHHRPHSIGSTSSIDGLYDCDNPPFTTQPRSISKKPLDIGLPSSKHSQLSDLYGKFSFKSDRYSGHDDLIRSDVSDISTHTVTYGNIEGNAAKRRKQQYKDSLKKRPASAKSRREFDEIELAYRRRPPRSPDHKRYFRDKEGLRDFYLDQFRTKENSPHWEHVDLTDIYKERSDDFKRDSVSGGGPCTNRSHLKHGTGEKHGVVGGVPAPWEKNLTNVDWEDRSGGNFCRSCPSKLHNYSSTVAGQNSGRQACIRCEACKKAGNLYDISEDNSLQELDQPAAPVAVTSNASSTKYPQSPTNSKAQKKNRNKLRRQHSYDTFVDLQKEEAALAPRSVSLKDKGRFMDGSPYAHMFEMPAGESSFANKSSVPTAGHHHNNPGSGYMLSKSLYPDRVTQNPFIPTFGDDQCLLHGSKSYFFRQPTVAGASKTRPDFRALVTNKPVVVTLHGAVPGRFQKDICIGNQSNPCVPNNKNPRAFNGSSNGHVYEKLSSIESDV

Usually IC50 stands for the concentration needed to halve the response being measured. Turning to `O=C(COc1ccc2[nH]c(=O)oc2c1)N1CCN(c2ccc(Cl)c(Cl)c2)CC1` [NP10068], the IC50 in data set [1] came out at 0.06 µM. For the same compound, the concentration at 30 min in data set [2] (mice 10 mg/kg i.p.) was 48 nM. The concentration at 30 minute in data set [2] (setting [6]) turned out to be 61 ng/mL; in data set [2] (setting [7]), 145 nM; in data set [2] (setting [8]) it was 679 ng/mL. For the same compound, in data set [3], the “Depression Result” value is “active”.

Take `NC(=O)Nc1ccc(OC[C@@H](O)CN2CCN(c3ccc(Cl)cc3)CC2)cc1` [NP10075]: the IC50 in data set [1] came to 0.108 µM. In data set [4], the “Genotoxicity (Ames) Result” value is recorded as “No positive”. The “mouse open field activity (total distance traveled)” value in data set [5] is listed as “Neither NP10075 or NP10076 altered mouse open field activity”. Further, the concentration at 30 min in data set [2] (mice 10 mg/kg i.p.) was 130 nM. Besides, the concentration at 30 minute was 220 ng/mL in data set [2] (setting [6]), 542 nM in data set [2] (setting [7]) and 3140 ng/mL in data set [2] (setting [8]). Besides, the “Depression Result” value in data set [3] is “active”.

Regarding `O=C1N(C[C@H](O)COc2ccc(O)cc2)CCN1c1ccc(Cl)cc1` [NP10076], the IC50 in data set [1] is 0.072 µM. For the same compound, the concentration at 30 min in data set [2] (mice 10 mg/kg i.p.) is 64 nM. The concentration at 30 minute in data set [2] (setting [6]) came out at 34 ng/mL; in data set [2] (setting [7]), 94 nM; in data set [2] (setting [8]), 377 ng/mL. The “Depression Result” value in data set [3] is listed as “active”.
